Holding throughout (experiment): DTP human tumour cell line panel, 48 h
Assay [1] has as its system MCF7 breast.
The subject of assay [2] is COLO 205 colon.
Assay [3] relates to MOLT-4 leukemia.
For assay [4], the system named is LOX IMVI melanoma.
Assay [5] deals with SNB-19 CNS.
The subject of assay [6] is SN12C renal.
Assay [7] relates to NCI/ADR-RES ovarian.
The test system of assay [8] is HS 578T breast.
For assay [9], the system named is TK-10 renal.
The test system of assay [10] is CAKI-1 renal.

Values joined by “and” are separate entries in the source; they are usually repeats but may differ in a detail not shown here. Equal values may be shown once.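 Method: 48-hour compound exposure of cells in 96-well plates, five concentrations, linear interpolation of endpoints. GI50: concentration for 50% inhibition of growth. At the TGI there is no net growth.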 Where a SMILES comes first, the peptide text is derived from it. The star is where a group is joined. Trt = c1ccc(C(c2ccccc2)(c2ccccc2)*)cc1; Cbz = O=C(OCc1ccccc1)* Where only a bound is given, the exact number is not on record here.

As for `CO[C@H]1C[C@@H]2CC[C@@H](C)[C@@](O)(O2)C(=O)C(=O)N2CCCC[C@H]2C(=O)O[C@H]([C@H](C)C[C@@H]2CC[C@@H](OC(=O)C(C)(CO)CO)[C@H](OC)C2)CC(=O)[C@H](C)/C=C(\C)[C@@H](O)[C@@H](OC)C(=O)[C@H](C)C[C@H](C)\C=C/C=C/C=C/1C`, the GI50 in [1] was 0.00422 µM; in assay [2] it was more than 5.94 µM; in assay [3] it was 0.22 µM; in assay [4], 0.00435 µM; in [6] it was more than 10 µM; in assay [7], more than 4.91 µM. For the same compound, the concentration for 50% growth inhibition (GI50) in [8] was 0.00133 µM; in [10], 0.0352 µM. Further, the TGI in assay [1], in assay [2], in [3], in assay [4], in assay [5] and in assay [6] was more than 10 µM throughout. For the same compound, the TGI in [7], in [8], in assay [9] and in assay [10] was more than 10 µM throughout.

For `COC(=O)NC1C(C)OC(OC2C/C=C(/C)C3C=CC4C(OC5CC(OC6CCC(OC7CC(O)C(OC8CCC(O)C(C)O8)C(C)O7)C(C)O6)C(OC(C)=O)C(C)O5)C(C)CC(C)C4C3(C)/C(O)=C3/C(=O)OC4(CC(C=O)=CC(O)C4/C=C\2C)C3=O)CC1(C)[N+](=O)[O-]` (stereo not given), the TGI is 4.01 µM in [1]; 2.71 µM and 1.08 µM in assay [2]; 4.78 µM and 0.634 µM in assay [3]; 1.32 µM and 0.808 µM in assay [4]; 3.45 µM and 0.509 µM in [5]; 3.32 µM and 0.891 µM in assay [6]. In addition, the TGI in assay [7] is 26.3 µM; in [8], 3.76 µM; in [9], 6.2 µM and 1.14 µM; in [10], 7.08 µM and 3.27 µM. Also, the GI50 in assay [2] is 0.321 µM; in [3] it was 0.131 µM; in assay [4], 0.281 µM; in assay [5], 0.0728 µM; in assay [6], 0.27 µM; in assay [9], 0.418 µM. In [10], the GI50 is 1.05 µM.

As for `Clc1nccc2c(-c3csc(-c4c[nH]c5ccc(Br)cc45)n3)c[nH]c12`, the GI50 in [1] is 2.2 µM; in assay [2] it was 1.8 µM; in assay [3] it was 3.02 µM; in [4], 1.63 µM; in assay [5], 3.25 µM; in [6] it was 3.35 µM. Also, the GI50 in assay [7] was 2.71 µM; in assay [8], 3.7 µM; in [9], 4.16 µM; in [10], 1.96 µM. The total growth inhibition concentration (TGI) in assay [1] is 11.6 µM; in assay [2] it was 5.61 µM; in [3], 13.9 µM; in [4], 3.25 µM; in [5] it was 11.6 µM; in assay [6], 14.4 µM. The TGI in assay [7] worked out at 10.7 µM; in assay [8] it was 17.8 µM; in [9] it was 13.4 µM; in [10], 8.04 µM.

On to `Oc1ccc(Cl)cc1C(c1cc(Cl)ccc1O)C(Cl)(Cl)Cl`, for which the GI50 in assay [1] was 2.42 µM; in [2], 1.9 µM; in [3], 1.54 µM; in [4], 1.66 µM; in assay [5], 3.24 µM; in assay [6], 1.67 µM. For the same compound, the GI50 in [7] is 1.99 µM; in [8] it was 1.81 µM; in assay [9], 2.27 µM; in [10] it was 1.97 µM. For the same compound, the TGI in assay [1] was 6.65 µM; in [2], 3.82 µM; in assay [3], 5.06 µM; in [4], 3.22 µM; in assay [5], 10.8 µM; in assay [6], 3.28 µM. For the same compound, the total growth inhibition concentration (TGI) in assay [7] was determined as 4.67 µM; in [8], 4.45 µM; in assay [9], 5.01 µM; in [10], 6.06 µM.

For the compound `CN=C(N)c1ccc(N=C(N)c2ccc(-c3ccc(C(N)=Nc4ccc(C(N)=NC)cc4)cc3)cc2)cc1`, the GI50 in assay [1] is 19 µM; in assay [2] it was 99.5 µM; in assay [3] it was more than 100 µM; in [4] it was 83 µM; in assay [5], more than 100 µM; in assay [6] it was more than 100 µM. In addition, the GI50 is more than 100 µM in assay [7], more than 100 µM in assay [8], 35.9 µM in assay [9] and more than 100 µM in [10]. Further, the concentration for total growth inhibition (TGI) in assay [1], in assay [2], in assay [3], in assay [4], in assay [5] and in assay [6] was more than 100 µM in each case. Further, the TGI in assay [7] was more than 100 µM; in assay [8], more than 100 µM; in assay [9] it was 97.1 µM; in assay [10], more than 100 µM.

As to `C/C(=N\O)c1ccc2ccc3ccccc3c2c1`, the TGI is more than 100 µM in assay [1]; 76.6 µM in assay [2]; 52.9 µM in assay [3]; 60.6 µM in assay [4]; more than 100 µM in assay [5]; more than 100 µM in [6]. The TGI is 85.3 µM in [7], 80.6 µM in assay [8], more than 100 µM in [9] and more than 100 µM in [10].

On to `O=C1CC2OCC=C3CN4CCC56c7ccccc7N1C5C2C3CC46O` (stereo not given), for which the TGI in assay [1], in [2], in assay [3], in assay [4], in assay [5] and in [6] was more than 100 µM throughout. Besides, the TGI in [7], in [8], in assay [9] and in assay [10] was more than 100 µM each time.

For `COC(=O)C(CO)NC(=O)C(CSC(c1ccccc1)(c1ccccc1)c1ccccc1)NC(=O)OCc1ccccc1` (stereo not given) (Cbz-Cys(Trt)-Ser-OMe; configuration not given here), the TGI in assay [1] was more than 59.1 µM; in [2] it was 32.4 µM; in assay [3], more than 32.1 µM; in [4], 30.1 µM; in [5], 50.7 µM; in assay [6] it was 27.3 µM. In addition, the TGI is 49.5 µM in assay [7], 47.9 µM in assay [8], more than 66.1 µM in [9] and 39.4 µM in [10].

Consider `O=C1CC(c2c[nH]c3ccc(F)cc23)C(=O)N1` (stereo not given), for which the GI50 in assay [1], in [2], in assay [3], in [4], in assay [5] and in assay [6] was more than 100 µM throughout. For the same compound, the GI50 in assay [7], in [8], in [9] and in [10] was more than 100 µM in each case. Further, the TGI in [1], in assay [2], in assay [3], in [4], in assay [5] and in assay [6] was more than 100 µM throughout. The TGI in assay [7], in assay [8], in [9] and in assay [10] was more than 100 µM in each case.

The values are drawn from PubChem BioAssay (NCI).
